Experimental data reported in ChEMBL document CHEMBL1201862, “PubChem BioAssay data set” (2004).
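Five concentrations, 48 hours, 96-well plates. Abbreviation: GI50, concentration required for 50% inhibition of growth.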 The source made the active and inactive calls. Cut-off read from the data, not from the text of the source: active = GI50 up to about 1.1 µM and inactive = higher.

Key:
Experiment in all cases: DTP human tumour cell line panel, 48 h
MCF7 = system: MCF7
CAKI-1 = system: CAKI-1
DU-145 = system: DU-145
MDA-MB-435 = system: MDA-MB-435
BT-549 = system: BT-549
EKVX = system: EKVX
HCC 2998 = system: HCC 2998
SF-295 = system: SF-295
NCI-H23 = system: NCI-H23
U-251 = system: U-251
HT-29 = system: HT-29
NCI-H460 = system: NCI-H460
UACC-62 = system: UACC-62
SK-MEL-28 = system: SK-MEL-28
Malme-3M = system: Malme-3M
TK-10 = system: TK-10
Hs-578T = system: Hs-578T
CCRF-CEM = system: CCRF-CEM
ACHN = system: ACHN
SF-268 = system: SF-268

Measured: GI50

Cc1c2cccc-2ccc2c1[nH]c1ccc(Br)cc12
inactive: MCF7 4.06 µM | CAKI-1 11.8 µM | DU-145 10.9 µM | MDA-MB-435 4.7 µM | BT-549 7.03 µM | EKVX 1.78 µM | HCC 2998 15.2 µM | SF-295 4.23 µM | NCI-H23 6.44 µM | U-251 3.21 µM | HT-29 13.2 µM | NCI-H460 4.56 µM | UACC-62 13 µM | SK-MEL-28 7.03 µM | Malme-3M 9.86 µM | TK-10 17.1 µM | Hs-578T 5.86 µM | CCRF-CEM 3.12 µM | ACHN 12.1 µM | SF-268 4.6 µM

COc1ccc(/C=C2\CCC(CNc3ccc(S(N)(=O)=O)cc3)C2=O)cc1 (stereo not given)
inactive: MCF7 1.74 µM | CAKI-1 3.27 µM | DU-145 > 53.8 µM | MDA-MB-435 18.3 µM | BT-549 18.7 µM | EKVX 27.6 µM | HCC 2998 33.3 µM | SF-295 > 67.3 µM | NCI-H23 19.7 µM | U-251 19.9 µM | HT-29 10.2 µM | NCI-H460 31.3 µM | UACC-62 24.5 µM | SK-MEL-28 16.7 µM | Malme-3M 16 µM | TK-10 14.3 µM | Hs-578T 43 µM | CCRF-CEM 2.29 µM | ACHN 23.1 µM | SF-268 22.5 µM

CCOC(=O)c1c2c(n(-c3ccc(C)cc3)c1C)-c1ccccc1C(=O)C2(C(=O)OCC)C(=O)OCC
inactive: MCF7 25.9 µM | CAKI-1 39.9 µM | DU-145 30.4 µM | MDA-MB-435 29.1 µM | BT-549 24.8 µM | EKVX 32.4 µM | HCC 2998 31.4 µM | SF-295 37.9 µM | NCI-H23 57.5 µM | U-251 70.1 µM | HT-29 27.3 µM | NCI-H460 35.5 µM | UACC-62 27.3 µM | SK-MEL-28 27.3 µM | Malme-3M 30.1 µM | TK-10 59.2 µM | Hs-578T 25.3 µM | CCRF-CEM 29 µM | ACHN 44.3 µM | SF-268 34.3 µM

NC(=O)c1cc(N2CC2)c([N+](=O)[O-])cc1[N+](=O)[O-] [TRETAZICAR]
inactive: MCF7 > 63.2 µM | CAKI-1 > 100 µM | DU-145 > 200 µM | MDA-MB-435 > 200 µM | BT-549 > 100 µM | EKVX > 100 µM | HCC 2998 > 100 µM | SF-295 > 100 µM | NCI-H23 > 100 µM | U-251 > 100 µM | HT-29 > 100 µM | NCI-H460 13 µM | UACC-62 > 100 µM | SK-MEL-28 > 200 µM | Malme-3M > 129 µM | TK-10 > 200 µM | Hs-578T > 200 µM | CCRF-CEM > 100 µM | ACHN > 100 µM | SF-268 > 100 µM

O=CN/C=C/c1cccc(O)c1
inactive: MCF7 > 34 µM | CAKI-1 > 61.5 µM | DU-145 57.5 µM | MDA-MB-435 38.2 µM | BT-549 8.26 µM | EKVX 69.2 µM | HCC 2998 > 74.6 µM | SF-295 48.8 µM | NCI-H23 52.4 µM | U-251 56.9 µM | HT-29 50.4 µM | NCI-H460 43.1 µM | UACC-62 46.1 µM | SK-MEL-28 > 84.1 µM | Malme-3M > 82.8 µM | TK-10 88.3 µM | Hs-578T > 55.2 µM | CCRF-CEM 61.1 µM | ACHN 50 µM | SF-268 > 57.5 µM
